The results in this text go back to patent US7241803B2, “Compounds for inhibition of HIV infection by blocking HIV entry” (New York Blood Center, priority 2002, dated 2007).

One assay concerns the target T1, CXCR4 (Homo sapiens, UniProt P61073).
T1 construct: expressed in transfected cells; host or cells: U373-MAGI-CXCR4CEM cells
The assay is described as follows: inhibition of anti-CXCR4 antibody 12G5 binding to CXCR4-expressing cells, cell-based ELISA. As to conditions: 25 μM. Here is the method:
Inhibition of anti-CXCR4 antibody binding to CXCR4-expressing cells. The inhibition of the binding of anti-CXCR4 antibody to CXCR4-expressing cells was determined using a cell-based ELISA as described previously (52). Briefly, U373-MAGI-CXCR4CEM cells (1×10^5/well) which express CXCR4 molecules were cultured in a 96-well plate at 37° C. overnight. The cells were fixed with 5% formaldehyde at room temperature for 15 min and washed with PBS-T. The cells were incubated with anti-CXCR4 mAb 12G5 at 37° C. for 1 h in the presence or absence of compounds tested. Isotype IgG2a was used as a control.
A general note: ELISA stands for enzyme-linked immunosorbent assay.

In the next assay the target is N36/C34 mixture (Human immunodeficiency virus type 1 group M subtype B, UniProt P04578). Conditions: 100 μg/ml. On the procedure: Circular dichroism (CD) spectroscopy. A test compound at graded concentrations was incubated with N36 in phosphate buffer (pH 7.2) at 37° C. for 30 min before addition of C34 in the same buffer at equimolar concentration. After incubation at 37° C. for 30 min, the mixture was cooled down and CD spectra of the mixture were measured on the J-715 CD spectrometer equipped with a thermoelectric temperature controller (Jasco, Japan). The instrument was calibrated using a two point calibration method with (+)-10-camphorsulfonic acid. The wavelength dependence of molar ellipticity (θ) was monitored at 0° C. by 5 scans in 1 nm increments with a sampling time of 10 seconds as previously described (12, 51). The CD signal at 222 nm was measured as a function of temperature. Thermal melts were performed in 2° C. steps, with 2 min of equilibration at each temperature and an acquisition time of 0.5 min. The midpoint of the thermal unfolding transition (Tm) was estimated from the maximum of the first derivative of the CD signal at 222 nm (1).

Assay [1] deals with HIV-1 AZT-R (clade B, X4). Conditions: Laboratory-adapted AZT-R (clade B, X4). Here is the method: Assessment of anti-HIV-1 infectivity. The inhibitory activity of compounds on infection by laboratory-adapted HIV-1 strains was determined as previously described (18). In brief, 1×10^4 MT-2 cells were infected with HIV-1 at 100 TCID50 (50% tissue culture infective dose) in 200 μl of RPMI 1640 medium containing 10% FBS in the presence or absence of compounds at graded concentrations overnight. For the time-of-addition assay, compounds were added at various time post-infection. Then the culture supernatants were removed and fresh media were added. On the fourth day post-infection, 100 μl of culture supernatants were collected from each well, mixed with equal volumes of 5% Triton X-100 and assayed for p24 antigen, which was quantitated by ELISA (51). Briefly, the wells of polystyrene plates (Immulon 1B, Dynex Technology, Chantilly, Va.) were coated with HIV immunoglobulin (HIVIG), which was prepared from plasma of HIV-seropositive donors with high neutralizing titers against HIV-1IIIB as previously described (44) in 0.085 M carbonate-bicarbonate buffer (pH 9.6) at 4° C. overnight, followed by washes with PBS-T buffer (0.01M PBS containing 0.05% Tween-20) and blocking with PBS containing 1% dry fat-free milk (Bio-Rad Inc., Hercules, Calif.). Virus lysates were added to the wells and incubated at 37° C. for 1 h. […] Absorbance at 450 nm was recorded in an ELISA reader (Ultra 384, Tecan). […]

Assay [2] has as its system HIV-1 93BR020 (clade F, X4R5). As to conditions: Primary 93BR020 (clade F, X4R5), PBMCs. Here is the method:
(§1) Inhibitory activity of compounds on infection by primary HIV-1 isolates was determined as previously described (41). PBMCs were isolated from the blood of healthy donors at the New York Blood Center by standard density gradient centrifugation using Histopaque-1077 (Sigma). The cells were plated in 75 cm^2 plastic flasks and incubated at 37° C. for 2 hrs. The nonadherent cells were collected and resuspended at 5×10^6 in 10 ml RPMI-1640 medium containing 10% FBS, 5 μg/ml PHA and 100 U/ml IL-2 (Sigma), followed by incubation at 37° C. for 3 days. The PHA-stimulated cells were infected with corresponding primary HIV-1 isolates at 0.01 multiplicity of infection (MOI) in the absence or presence of a compound at graded concentrations. Culture media were changed every 3 days. The supernatants were collected 7 days post-infection and tested for p24 antigen by ELISA as described above. The percent inhibition of p24 production and IC50 values were calculated as described above.

The test system of assay [3] is HIV-1 RU570 (clade G, R5). As to conditions: Primary RU570 (clade G, R5), PBMCs. Here is the method:
as §1

Assay [4] relates to HIV-1 93TH051 (clade E, X4R5). Conditions: Primary 93TH051 (clade E, X4R5), PBMCs. Here is the method: as §1

N36/C34 mixture, sequence (P04578 546-581): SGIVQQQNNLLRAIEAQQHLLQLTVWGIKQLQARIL
T1 sequence (P61073 whole entry): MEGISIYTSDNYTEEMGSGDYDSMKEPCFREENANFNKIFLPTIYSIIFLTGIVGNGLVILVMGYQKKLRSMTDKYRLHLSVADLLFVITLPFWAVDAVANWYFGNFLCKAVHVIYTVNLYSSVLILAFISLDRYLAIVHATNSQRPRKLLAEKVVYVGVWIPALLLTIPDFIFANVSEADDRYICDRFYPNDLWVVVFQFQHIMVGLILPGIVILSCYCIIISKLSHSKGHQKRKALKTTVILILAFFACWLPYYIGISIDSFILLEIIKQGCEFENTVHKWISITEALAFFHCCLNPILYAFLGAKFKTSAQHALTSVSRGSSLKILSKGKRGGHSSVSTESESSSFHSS

`Cc1ccc(C)n1-c1ccc(C(=O)O)c(O)c1` [NB-2]: the “inhibition of 12G5 binding to U373-MAGI-CXCR4CEM cells” value at CXCR4 is given as “no inhibitory activity”. Besides, at N36/C34 mixture, the “α-helicity of the N36/C34 mixture” value is on record as “significantly disrupted”. The “IC50 (μg/ml) for inhibition of p24 production” value turned out to be 1.41 ± 0.03 µg/mL in assay [1], 2.50 ± 0.01 µg/mL in assay [2], 23.12 ± 1.23 µg/mL in assay [3] and 1.15 ± 0.14 µg/mL in assay [4].

Consider `O=C(O)c1cc(-n2cccc2)ccc1Cl` [NB-64], for which, on CXCR4, the “inhibition of 12G5 binding to U373-MAGI-CXCR4CEM cells” value is “no inhibitory activity”. The “α-helicity of the N36/C34 mixture” value at N36/C34 mixture is listed as “significantly disrupted”. Also, the “IC50 (μg/ml) for inhibition of p24 production” value in assay [1] stood at 6.25 ± 0.25 µg/mL; in assay [2], 1.05 ± 0.18 µg/mL; in assay [3], 8.81 ± 0.24 µg/mL; in assay [4], 5.24 ± 1.80 µg/mL.
